# Assay results from paper PMC9234964, “Design, Synthesis, and Biological Evaluation of a Novel Series of 4-Guanidinobenzoate Derivatives as Enteropeptidase Inhibitors with Low Systemic Exposure for the Treatment of Obesity” (Journal of Medicinal Chemistry, 2022).
# Like-named read-outs stand apart in the source and are kept apart here.
# Assays:
# [1] = Kinetic aqueous solubility at pH 1.2/6.8; assay type: physicochemical; conditions: aqueous medium, kinetic from dmso stock
# [2] = Aqueous stability at pH 1.2/6.8; assay type: physicochemical; conditions: 24 h; for stability at pH 1.2 (% decomposed): pH 1.2, 37 °C; for stability at pH 6.8 (% decomposed): pH 6.8, 37 °C
# Procedure: Sample solutions in pH 1.2/6.8 media (first/second fluids for the disintegration test in the Japanese Pharmacopoeia 17th edition, including 10% dimethyl sulfoxide if needed, 10 μg/mL) were prepared for the compounds and incubated at 37 °C. The sample solutions were measured initially and at 24 h using HPLC, and peak analysis was conducted. Residual contents (%) of the compounds in pH 1.2/6.8 media at 37 °C after 24 h of incubation of the initial solutions were calculated using the peak areas.
# High-Fat-Diet-Fed Mice = test: Increase in fecal protein output in high-fat-diet-fed mice; assay type: in vivo, mouse; conditions: for fecal protein output (fold of 2a): oral
# Procedure: A high-fat diet (HFD)-fed mouse (D12079B diet, male, 14–21 weeks old) was used for the in vivo assay. For compound screening, mice were orally administered with either the test compound (10 mg/kg) or 0.5% methylcellulose (MC) as a vehicle control. For the assessment of efficacy by systemic exposure of the compound, mice were subcutaneously administered with compound 2a (10 mg/kg) or saline as a vehicle control and compared with those administered oral treatment (60 mg/kg). Doses were selected to achieve equivalent systemic exposure as the area under the curve over 24 h based on pharmacokinetic data of both oral and subcutaneous administration. Whole feces were collected overnight, and the fecal protein output was evaluated as described previously.[33]
# [3] = tested on: Human Multi-drug Resistance 1 (MDR-1) Expressing Cells; test: Membrane permeability with MDR1-expressing cells (A to B); assay type: in vitro ADME; conditions: apical to basolateral, 10 μmol/L, 2 h
# Procedure: The transcellular transport study was performed as reported previously.[40] In brief, the cells were grown in a HTS transwell 96 well permeable support (pore size 0.4 μm, 0.143 cm^2 surface area) with a polyethylene terephthalate membrane (Corning Life Sciences, Lowell, MA, USA) at a density of 1.125 × 10^5 cells/well. The cells were preincubated with M199 at 37 °C for 30 min. Subsequently, transcellular transport was initiated by the addition of M199 to apical compartments containing 10 μmol/L test compounds and terminated by the removal of each assay plate after 2 h. The aliquots in the opposite compartments were subjected to be measured for compound concentration by LC–MS/MS. Permeability was calculated using the permeated compound concentration.
# [4] = Plasma exposure of 2a in mice (oral and subcutaneous); assay type: in vivo; conditions: male, mouse, read-out: AUC0-24h
# human enteropeptidase [5] = biological target: T1, human enteropeptidase (Homo sapiens, UniProt P98073); test: Human enteropeptidase enzyme assay; assay type: biochemical; conditions: for IC50: substrate and compound at room temperature, 95% confidence intervals in parentheses
# T1 construct: purchased ITSI-Biosciences, LLC #REN-260
# Procedure: Human recombinant enteropeptidase (#REN-260, ITSI-Biosciences, LLC) was diluted with an assay buffer (50 mM tricine (pH 8.0), 0.01(w/v)% Tween 20, 10 mM CaCl2) to prepare a 24 mU/mL enzyme solution. Subsequently, 5FAM–Abu–[…]CPQ2)–Lys–Lys–NH2 (purity: 97.2%, CPC Scientific, Inc.) was diluted with an assay buffer to prepare a 2.1 μM substrate solution. Compounds were dissolved in DMSO and then diluted in the assay buffer. The compound solution (5 μL/well) and the substrate solution (5 μL/well) were added to a 384-well black plate (#784076, Greiner Bio-One) and mixed. Then, the enzyme solution (5 μL/well) was added to the plate and mixed to start the reaction. The fluorescence intensity was measured at an excitation wavelength of 485 nm and a fluorescence wavelength of 535 nm using a fluorescence plate reader EnVision (PerkinElmer Inc.). Also, the same reaction as above was performed except that the test compound was not added (test compound non-supplemented group). In addition, the same reaction as above was performed except that neither the test compound nor the enzyme was added (control group).
# (§1) Inhibition rate (%) = (1 – (fluorescence intensity of the test compound supplemented group – fluorescence intensity of the control group)/(fluorescence intensity of the test compound non-supplemented group – fluorescence intensity of the control group)) × 100.
# [6] = PAMPA (parallel artificial membrane permeability assay); assay type: in vitro ADME; conditions: PAMPA
# human enteropeptidase [7] = biological target: T1, human enteropeptidase; test: Dissociation assay (recovery of active enzyme after rapid dilution); assay type: biochemical; conditions: rapid dilution after 2 h preincubation of compound and enzyme
# Excerpt: Although not all reaction constants for 1c could be identified, the in vitro IC50 value could be used as an indicator of the combination of k1, k–1, and k2. In this case, the IC50 value of a compound is derived from its affinity for enteropeptidase (k1 and k–1) and its reactivity against enteropeptidase (k2). […] As the affinity of a compound for enteropeptidase is expected to largely contribute to the IC50 value based on initial velocities (IC50(initial)) relative to the IC50 value based on the steady state (IC50(app)), we performed chemical modifications based on IC50(initial). […] Because T1/2 can be an indicator of k3, we focused on compounds with low IC50(initial) values and long T1/2 values.
# For dissociation assay, compounds were dissolved in DMSO and then diluted in assay buffer (50 mM Tricine pH 8.0, 0.01(w/v)% Tween20, 10 mM CaCl2). 10 μL of compound solution was added in 96-well plate (corning), and then, 10 μL of 100 mU/mL human recombinant enteropeptidase (ITSI-Biosciences) solution was added into the plate and incubated at room temperature for 2 h. […] After incubation, 2 μL of the compound-enzyme mixture was transferred to a 96-well black plate (Corning) and 200 μL of substrate solution (3 μM 5FAM–Abu–[…]CPQ2)–Lys–Lys–NH2 (CPC Scientific)) was added into the well. By rapid dilution, the inhibitor concentration went to 10-fold below the IC50 from 10-fold above the IC50. The fluorescence was measured each 2 min at excitation wavelength 485 nm and emission wavelength 535 nm by EnVision (Perkin Elmer). The progress curves were fitted to following equation to determine the values for koff and dissociation half-life T1/2 according to the following equations. [drawing 4] 1 where t is time and F is fluorescence from initial rate vo to steady state rate vs. [drawing 5] 2
# Pharmacokinetics in rats = assay type: in vivo, rat
# Procedure: […] After administration, blood samples were collected and centrifuged to obtain plasma specimens. The compound concentrations in the plasma were measured using LC–MS/MS.
# DIO rats = test: Anti-obesity effects in male DIO rats (repeated dosing, 4 weeks); assay type: in vivo, rat; conditions: oral, 6b 1, 3 and 10 mg/kg; for body weight change / food intake: (S)-5b 10 mg/kg; for fecal protein output: day 28, (S)-5b 10 mg/kg
# Procedure: Six-week-old male DIO F344/Jcl rats were obtained from CLEA Japan (Tokyo, Japan) and fed with a HFD D12451 (45 kcal % fat, 20 kcal % protein, and 35 kcal % carbohydrate; Research Diets, Inc.). The study involved six groups of rats (n = 6): vehicle (0.5% MC), 6b (1, 3, and 10 mg/kg), (S)-5b (SCO-792) (10 mg/kg), and sibutramine (1 mg/kg). […] were orally administered with either the vehicle or compounds starting at 36 weeks of age for 4 weeks. The body weight was monitored every 1–4 days for 4 weeks. The change in body weight is presented as a percentage of the initial body weight. Feces were collected on day 28 and evaluated for pharmacodynamic markers.
# rat enteropeptidase = rat enteropeptidase (Rattus norvegicus, UniProt A0ABK0LTS6); test: Rat enteropeptidase enzyme assay; assay type: biochemical
# Procedure: The rat enteropeptidase catalytic subunit (aa 818-1057, GenBank accession no. XM_017597944) was cloned into the BglII-NotI site of the pET32a vector (Millipore). The active rat enteropeptidase catalytic subunit was obtained as described previously.[36] The rat recombinant enteropeptidase was diluted with an assay buffer (50 mM Tricine (pH 8.0), 0.01(w/v)% Tween 20, 10 mM CaCl2) to prepare a 2.4 ng/mL enzyme solution. Subsequently, 5FAM–Abu–[…]CPQ2)–Lys–Lys–NH2 (purity: 97.2%, CPC Scientific, Inc.) was diluted with an assay buffer to prepare a 5.4 μM substrate solution. Compounds were dissolved in DMSO and then diluted in the assay buffer. The compound solution (5 μL/well) and the substrate solution (5 μL/well) were added to a 384-well black plate (#784076, Greiner Bio-One) and mixed. Then, the enzyme solution (5 μL/well) was added to the plate and mixed to start the reaction. The fluorescence intensity was measured at an excitation wavelength of 485 nm and a fluorescence wavelength of 535 nm using a fluorescence plate reader EnVision (PerkinElmer Inc.). […]
# as §1
# DIO mice = conditions: cited from earlier work
# enteropeptidase = tested on: enteropeptidase; design: method as in PMID 33033171; conditions: cited from earlier work
# [8] = 6 min incubation of enzyme, read-out: Human enteropeptidase IC50(initial)
# [9] = 120 min incubation of enzyme, read-out: Human enteropeptidase IC50(app)
# T1 sequence (P98073 whole entry): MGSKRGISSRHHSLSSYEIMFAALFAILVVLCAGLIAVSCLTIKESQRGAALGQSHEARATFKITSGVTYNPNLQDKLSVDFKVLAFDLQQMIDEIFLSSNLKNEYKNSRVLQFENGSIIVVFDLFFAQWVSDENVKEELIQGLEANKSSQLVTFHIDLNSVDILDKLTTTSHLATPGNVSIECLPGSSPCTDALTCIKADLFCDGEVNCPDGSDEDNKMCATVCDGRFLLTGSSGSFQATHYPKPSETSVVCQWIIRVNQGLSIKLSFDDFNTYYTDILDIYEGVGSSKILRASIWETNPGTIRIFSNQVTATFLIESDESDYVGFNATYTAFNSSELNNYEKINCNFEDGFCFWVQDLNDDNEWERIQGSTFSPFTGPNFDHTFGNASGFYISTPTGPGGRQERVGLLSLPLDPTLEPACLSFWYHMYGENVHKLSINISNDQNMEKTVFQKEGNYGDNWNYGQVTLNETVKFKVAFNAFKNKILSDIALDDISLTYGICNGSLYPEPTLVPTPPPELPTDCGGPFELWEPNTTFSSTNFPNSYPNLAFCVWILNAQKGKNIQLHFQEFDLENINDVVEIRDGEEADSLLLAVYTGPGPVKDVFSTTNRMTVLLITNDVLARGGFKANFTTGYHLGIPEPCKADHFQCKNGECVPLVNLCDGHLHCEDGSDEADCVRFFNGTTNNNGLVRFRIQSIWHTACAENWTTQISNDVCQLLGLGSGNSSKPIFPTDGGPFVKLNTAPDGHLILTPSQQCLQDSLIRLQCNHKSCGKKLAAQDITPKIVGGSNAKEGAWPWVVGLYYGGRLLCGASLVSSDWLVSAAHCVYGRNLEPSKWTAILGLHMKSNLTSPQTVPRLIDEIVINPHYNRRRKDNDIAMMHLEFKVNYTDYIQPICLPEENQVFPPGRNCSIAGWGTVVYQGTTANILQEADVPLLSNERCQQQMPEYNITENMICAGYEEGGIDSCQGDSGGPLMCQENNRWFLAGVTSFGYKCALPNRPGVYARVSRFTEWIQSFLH
# rat enteropeptidase, sequence (A0ABK0LTS6 829-1068): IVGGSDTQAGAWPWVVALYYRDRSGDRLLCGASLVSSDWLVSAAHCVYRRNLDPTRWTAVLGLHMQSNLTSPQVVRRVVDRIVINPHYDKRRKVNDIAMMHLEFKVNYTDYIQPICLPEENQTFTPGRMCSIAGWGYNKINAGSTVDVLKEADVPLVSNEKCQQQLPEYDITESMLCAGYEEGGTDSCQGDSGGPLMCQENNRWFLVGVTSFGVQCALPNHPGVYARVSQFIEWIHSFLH
SMILES,stability at pH 1.2 (% decomposed) [2] [% decomposed],stability at pH 6.8 (% decomposed) [2] [% decomposed],fecal protein output (fold of 2a) (High-Fat-Diet-Fed Mice; 10 mg/kg),MDR1 (A to B) [3] [nm/s],IC50 (human enteropeptidase [5]; [8]) [nM],IC50 (human enteropeptidase [5]; [9]) [nM],body weight change (DIO rats),food intake (DIO rats),fecal protein output (DIO rats),body weight (DIO mice),other results
"Cl.N=C(N)Nc1ccc(C(=O)Oc2ccc(CC(=O)N[C@@H](CC(=O)O)C(=O)O)cc2)cc1 [2a, N-({4-[(4-Carbamimidamidobenzoyl)oxy]phenyl}acetyl)-L-aspartic Acid Hydrochloride]",2.5,5.0,(1.00) fold of 2a,0,94,5.9,,,,,"solubility kinetic ([1]; pH 1.2, simulated gastric fluid, read-out: Kinetic aqueous solubility at pH 1.2): 76 µg/mL; solubility kinetic ([1]; pH 6.8, aqueous buffer, read-out: Kinetic aqueous solubility at pH 6.8): > 97 µg/mL; fecal protein content vs vehicle (High-Fat-Diet-Fed Mice; oral administration, 60 mg/kg): significant increase; fecal protein levels vs vehicle (High-Fat-Diet-Fed Mice; subcutaneous administration, 10 mg/kg): did not increase; AUC(0-t) at 24 h ([4]; oral, 60 mg/kg): 9820 ± 3740 ng·h/mL; AUC(0-t) at 24 h ([4]; sc, subcutaneous, 10 mg/kg): 16000 ± 2640 ng·h/mL; fold enhancement in IC50(initial) relative to 1c (human enteropeptidase [5]; 6 min, glycine replaced with aspartic acid): five-fold; Papp ([6]; pH 7.4, read-out: PAMPA at pH 7.4): 0.2 ×10⁻⁶ cm/s; Papp ([6]; pH 5.0, read-out: PAMPA at pH 5.0): 0.1 ×10⁻⁶ cm/s; T1/2, half-time of dissociation from human enteropeptidase (human enteropeptidase [7]): >2 h"
"N=C(N)Nc1ccc(C(=O)Oc2cccc(C3=NO[C@](CC(=O)O)(C(=O)O)C3)c2)cc1 [6b, (5R)-3-{3-[(4-Carbamimidamidobenzoyl)oxy]phenyl}-5-(carboxymethyl)-4,5-dihydro-1,2-oxazole-5-carboxylic Acid]",1.1,7.3,1.29 fold of 2a,0,20,1.2,potent body weight loss in a dose-dependent manner,significant reduction,significant increase,,"PK in rats, plasma concentration (Pharmacokinetics in rats; 1 mg/kg p.o., below the lower limit of quantitation): < 1 ng/mL; melting point: 199 °C (dec.); IC50 (rat enteropeptidase; 120 min, supplement csv, unit inferred, read-out: rat enteropeptidase IC50 (120 min)): 1.5 nM"
"N=C(N)Nc1ccc(C(=O)Oc2ccc3c(c2)OC[C@H]3CC(=O)N[C@@H](CC(=O)O)C(=O)O)cc1.O [(S)-5b, N-({(3S)-6-[(4-Carbamimidamidobenzoyl)oxy]-2,3-dihydro-1-benzofuran-3-yl}acetyl)-L-aspartic Acid Hydrate]",0.2,4.4,1.28 fold of 2a,0,68,,body weight loss,reduction,significant elevation,potent body weight reduction,PK in rats BA (Pharmacokinetics in rats; 10 mg/kg p.o. and 0.2 mg/kg i.v.): 0.4%; IC50 (rat enteropeptidase): 4.6 nM
CN(C)C(=O)COC(=O)Cc1ccc(OC(=O)c2ccc(NC(=N)N)cc2)cc1 [camostat],,,,,,,,,,induced body weight loss,enteropeptidase activity (enteropeptidase): inhibited enteropeptidase activity
